Measured values: article PMC10932281, “A Combination of β-Aescin and Newly Synthesized Alkylamidobetaines as Modern Components Eradicating the Biofilms of Multidrug-Resistant Clinical Strains of Candida glabrata” (International Journal of Molecular Sciences, 2024)
Read-outs that look alike come from different tables or passages of the source.

Legend:
Krafft temperature (TK) = type: physicochemical
Protocol: CHNS elemental analysis was carried out by a Vario EL cube (Elementar, Germany) calibrated on acetanilide. Electrospray ionization mass spectroscopy (ESI-MS) (micrOTOF-Q instrument; Bruker Daltonics, Germany) allowed for the MS spectra to be obtained. The ESI-MS instrument was operated in the positive ion mode and calibrated with the Tunemix^TM mixture (Bruker Daltonics, Germany). The mass accuracy was better than 5 ppm. The obtained mass spectra were analyzed using DataAnalysis 3.4 software (Bruker Daltonics, Germany). ^1H NMR spectra were recorded on a Bruker AMX-500 spectrometer, using CDCl3 as a solvent. ^1H chemical shifts (in ppm) were calibrated to TMS as an internal reference. Melting points were determined using a Boetius melting point apparatus, while Krafft temperatures were determined according to the directions given in [47]. CMC is the minimum concentration above which micelles are formed in aqueous liquid. To obtain the CMC values, we used McGowan’s model. […] Molecular characteristic volumes (Vx) are found by the addition of the atomic characteristic volumes and the subtraction for the same factory (6.56 × 10^−6 m^3 mol^−1) for every covalent bond.

C. glabrata ATCC 90030 = experiment: Interaction of AABs (3 µM) with antifungal agents, modified checkerboard; type: cell-based, Candida glabrata
C. glabrata 2586 = experiment: as above; type: cell-based, Candida glabrata
C. glabrata 2853 = experiment: as above; type: cell-based, Candida glabrata
C. glabrata DSM 1226 = tested on: C. glabrata DSM 1226; set-up: method as in PMID 37508306; details: ref [12]; cited from earlier work
[1] = tested on: C. glabrata clinical isolate C8 (C18); set-up: method as in PMID 37508306; details: ref [12]; cited from earlier work
C. glabrata cells = tested on: C. glabrata cells; set-up: method as in PMID 37508306; details: ref [12], cited from earlier work
[2] = C9 at constant 3 µM, dilutions in µg/mL
[3] = C11 at constant 3 µM, dilutions in µg/mL
[4] = C13 at constant 3 µM, dilutions in µg/mL
[5] = C15 at constant 3 µM, dilutions in µg/mL

Q: Which “TK (Krafft temperature)” value (Krafft temperature (TK)) does the source give for `CCCCCCCCCC(=O)N(C)CCC[N+](C)(C)CC(=O)[O-]` [C9] here?
A: Its value is <0 °C.

Q: Which results are given for β-aescin?
A: Multiplicity factor (MF) with C9 (C. glabrata ATCC 90030; C9 3 µM, |MF| = MIC90 alone/MIC90 with AAB): 1; MIC90 of antimycotic combined with C9 (C. glabrata ATCC 90030; [2]): 128; Multiplicity factor (MF) with C11 (C. glabrata ATCC 90030; C11 3 µM): 1; MIC90 of antimycotic combined with C11 (C. glabrata ATCC 90030; [3]): 128; Multiplicity factor (MF) with C13 (C. glabrata ATCC 90030; C13 3 µM): 1; MIC90 of antimycotic combined with C13 (C. glabrata ATCC 90030; [4]): 128; Multiplicity factor (MF) with C15 (C. glabrata ATCC 90030; C15 3 µM): 1; MIC90 of antimycotic combined with C15 (C. glabrata ATCC 90030; [5]): 128; Multiplicity factor (MF) with C9 (C. glabrata 2586; C9 3 µM): 2; MIC90 of antimycotic combined with C9 (C. glabrata 2586; [2]): 128; Multiplicity factor (MF) with C11 (C. glabrata 2586; C11 3 µM): 2; MIC90 of antimycotic combined with C11 (C. glabrata 2586; [3]): 128; Multiplicity factor (MF) with C13 (C. glabrata 2586; C13 3 µM): 2; MIC90 of antimycotic combined with C13 (C. glabrata 2586; [4]): 128; Multiplicity factor (MF) with C15 (C. glabrata 2586; C15 3 µM): 2; MIC90 of antimycotic combined with C15 (C. glabrata 2586; [5]): 128; Multiplicity factor (MF) with C9 (C. glabrata 2853; C9 3 µM): 1; MIC90 of antimycotic combined with C9 (C. glabrata 2853; [2]): 128; Multiplicity factor (MF) with C11 (C. glabrata 2853; C11 3 µM): 1; MIC90 of antimycotic combined with C11 (C. glabrata 2853; [3]): 128; Multiplicity factor (MF) with C13 (C. glabrata 2853; C13 3 µM): 1; MIC90 of antimycotic combined with C13 (C. glabrata 2853; [4]): 128; Multiplicity factor (MF) with C15 (C. glabrata 2853; C15 3 µM): 1; MIC90 of antimycotic combined with C15 (C. glabrata 2853; [5]): 128; MFC (C. glabrata DSM 1226): 160 µg/mL; MIC (C. glabrata DSM 1226): 80 µg/mL; MFC [1]: 100 µg/mL; MIC [1]: 40 µg/mL; Increase versus control (FACS, membrane integrity) (C. glabrata cells; 1 × MIC): about 7.4%; Increase versus control (FACS, membrane integrity) (C. glabrata cells; 2 × MIC): ~22%
